Measured values reported in patent US10106553B2, “Substituted benzothiophenyl derivatives as GPR40 agonists for the treatment of type II diabetes” (Janssen Pharmaceutica NV, priority 2016, dated 2018).
pEC50: −log10 of the molar value.

Target: human GPR40 (Homo sapiens (Human), UniProt O14842)
Experiment: GPR40 Calcium Flux Assay;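 further: calcium flux followed with the Fluo-8 fluorescent dye, intensity read each second over 8 min as compounds were added to the cells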
Format: cell-based
Conditions: transfected HEK293 cells stably expressing human GPR40; Ca2+ mobilization; mean data; read-out: hGPR40 Ca^2+ Assay EC50

human GPR40, sequence (O14842 whole entry): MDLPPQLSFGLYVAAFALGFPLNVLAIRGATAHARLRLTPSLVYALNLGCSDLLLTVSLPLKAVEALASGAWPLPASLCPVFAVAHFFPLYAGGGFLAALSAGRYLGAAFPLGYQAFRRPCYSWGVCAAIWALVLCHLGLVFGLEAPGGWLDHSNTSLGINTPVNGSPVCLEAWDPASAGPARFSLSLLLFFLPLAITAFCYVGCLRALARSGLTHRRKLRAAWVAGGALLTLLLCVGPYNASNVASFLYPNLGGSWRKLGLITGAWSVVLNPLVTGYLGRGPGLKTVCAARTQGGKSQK

**Q.** With `CC#C[C@@H](Cc1nnn[nH]1)c1ccc(OCc2ccc3scc(-c4ccccc4C)c3n2)cc1` [Cpd 53, (2S)-5-((4-(1-(1H-Tetrazol-5-yl)pent-3-yn-2-yl)phenoxy)methyl)-3-(2-methylphenyl)thieno[3,2-b]pyridine] as the molecule, how does the pEC50 read?
**A.** Its pEC50 is 6.77.

**Q.** How did the pEC50 turn out when `CC#C[C@@H](Cc1nnn[nH]1)c1ccc(OCc2ccc3scc(-c4ccc(C5CCS(=O)(=O)CC5)cc4C)c3c2)cc1` [Cpd 17, (2S)-4-(4-(5-((4-(1-(1H-Tetrazol-5-yl)pent-3-yn-2-yl)phenoxy)methyl)benzo[b]thiophen-3-yl)-3-methylphenyl)tetrahydro-2H-thiopyran 1,1-dioxide] was run?
**A.** Its pEC50 is 7.01.

**Q.** How did the pEC50 turn out when `CC#C[C@@H](Cc1nnn[nH]1)c1ccc(OCc2ccc3scc(-c4ccc(OCCC(C)(C)O)cc4C)c3c2)nc1` [Cpd 43, (2R)-4-(4-(5-(((5-(1-(1H-Tetrazol-5-yl)pent-3-yn-2-yl)pyridin-2-yl)oxy)methyl)-benzo[b]thiophen-3-yl)-3-methylphenoxy)-2-methylbutan-2-ol] was run?
**A.** The pEC50 was 6.89.

**Q.** How did the pEC50 turn out when `CC#C[C@@H](Cc1nnn[nH]1)c1ccc(OCc2ccc3scc(-c4ccc(OCC5(O)CCS(=O)(=O)CC5)cc4C)c3c2)cc1` [Cpd 6, (2S)-4-((4-(5-((4-(1-(1H-Tetrazol-5-yl)pent-3-yn-2-yl)phenoxy)methyl)benzo[b]thiophen-3-yl)-3-methylphenoxy)methyl)-4-hydroxytetrahydro-2H-thiopyran 1,1-dioxide] was run?
**A.** Its pEC50 is 6.72.

**Q.** How did the pEC50 turn out when `CC#C[C@@H](Cc1nnn[nH]1)c1ccc(OCc2ccc3scc(-c4cc(Cl)ncc4C)c3c2)cc1` [Cpd 5, (2S)-4-(5-((4-(1-(1H-Tetrazol-5-yl)pent-3-yn-2-yl)phenoxy)methyl)benzo[b]thiophen-3-yl)-2-chloro-5-methylpyridine] was run?
**A.** Its pEC50 is 7.19.

**Q.** `CC#C[C@@H](Cc1nnn[nH]1)c1ccc(OCc2cc(C)c3scc(C4CCCCC4)c3c2)cc1` [Cpd 66, (2S)-5-(2-(4-((3-Cyclohexyl-7-methylbenzo[b]thiophen-5-yl)methoxy)phenyl)pent-3-yn-1-yl)-1H-tetrazole] was tested. Which pEC50 did it give?
**A.** Its pEC50 is 5.95.

**Q.** How did the pEC50 turn out when `CC#C[C@@H](Cc1nnn[nH]1)c1ccc(OCc2cnc3scc(-c4ccc(OC)cc4C)c3c2)cc1` [Cpd 50, (2S)-5-((4-(1-(1H-Tetrazol-5-yl)pent-3-yn-2-yl)phenoxy)methyl)-3-(4-methoxy-2-methylphenyl)thieno[2,3-b]pyridine] was run?
**A.** The pEC50 was 7.28.

**Q.** `CC#C[C@@H](Cc1nnn[nH]1)c1ccc(OCc2ccc3scc(-c4ccc(OC5CCOCC5)cc4C)c3c2)cc1` [Cpd 9, (2S)-5-(2-(4-((3-(2-Methyl-4-((tetrahydro-2H-pyran-4-yl)oxy)phenyl)benzo[b]thiophen-5-yl)methoxy)phenyl)pent-3-yn-1-yl)-1H-tetrazole] was tested. Which pEC50 did it give?
**A.** Its pEC50 is 6.57.

**Q.** With `CC#C[C@@H](Cc1nnn[nH]1)c1ccc(OCc2ccc3scc(-c4cc(OCCOC)cnc4C)c3c2)cc1` [Cpd 33, (2S)-3-(5-((4-(1-(1H-Tetrazol-5-yl)pent-3-yn-2-yl)phenoxy)methyl)benzo[b]thiophen-3-yl)-5-(2-methoxyethoxy)-2-methylpyridine] as the molecule, how does the pEC50 read?
**A.** Its pEC50 is 8.10.

**Q.** `CC#C[C@@H](Cc1nnn[nH]1)c1ccc(OCc2ccc3scc(C4CCCC4)c3c2)cc1` [Cpd 56, (2S)-5-(2-(4-((3-Cyclopentylbenzo[b]thiophen-5-yl)methoxy)phenyl)pent-3-yn-1-yl)-1H-tetrazole] was tested. Which pEC50 did it give?
**A.** The pEC50 was 7.27.

**Q.** `CC#C[C@@H](Cc1nnn[nH]1)c1ccc(OCc2cc3c(-c4ccccc4C)csc3cn2)cc1` [Cpd 51, (2S)-5-((4-(1-(1H-Tetrazol-5-yl)pent-3-yn-2-yl)phenoxy)methyl)-3-(2-methylphenyl)thieno[2,3-c]pyridine] was tested. Which pEC50 did it give?
**A.** Its pEC50 is 8.52.

**Q.** With `CC#C[C@@H](Cc1nnn[nH]1)c1ccc(OCc2ccc3scc(-c4cccc5c4CCN5C(=O)CC)c3c2)cc1` [Cpd 28, (2S)-1-(4-(5-((4-(1-(1H-tetrazol-5-yl)pent-3-yn-2-yl)phenoxy)methyl)benzo[b]thiophen-3-yl)indolin-1-yl)propan-1-one] as the molecule, how does the pEC50 read?
**A.** Its pEC50 is 7.57.

**Q.** With `CC#C[C@@H](Cc1nnn[nH]1)c1ccc(OCc2ccc3sc(C(F)(F)F)c(C4CC4)c3c2)cc1` [Cpd 37, (2S)-5-(2-(4-((3-Cyclopropyl-2-(trifluoromethyl)benzo[b]thiophen-5-yl)methoxy)phenyl)pent-3-yn-1-yl)-1H-tetrazole] as the molecule, how does the pEC50 read?
**A.** Its pEC50 is 6.23.

**Q.** How did the pEC50 turn out when `CC#C[C@@H](Cc1nnn[nH]1)c1ccc(OCc2ccc3scc(-c4cnc(OCCOC)cc4C)c3c2)cc1` [Cpd 21, (2S)-5-(5-((4-(1-(1H-Tetrazol-5-yl)pent-3-yn-2-yl)phenoxy)methyl)benzo[b]thiophen-3-yl)-2-(2-methoxyethoxy)-4-methylpyridine] was run?
**A.** The pEC50 was 7.29.

**Q.** `CC#C[C@@H](Cc1nnn[nH]1)c1ccc(OCc2cc3c(-c4ccc(OC)cc4C)csc3cn2)cc1` [Cpd 52, (2S)-5-((4-(1-(1H-Tetrazol-5-yl)pent-3-yn-2-yl)phenoxy)methyl)-3-(4-methoxy-2-methylphenyl)thieno[2,3-c]pyridine] was tested. Which pEC50 did it give?
**A.** The pEC50 was 9.00.

**Q.** `CC#C[C@@H](Cc1nnn[nH]1)c1ccc(OCc2ccc3sccc3c2)cc1` [Cpd 60, (2S)-5-(2-(4-(Benzo[b]thiophen-5-ylmethoxy)phenyl)pent-3-yn-1-yl)-1H-tetrazole] was tested. Which pEC50 did it give?
**A.** The pEC50 was 6.96.

**Q.** `CC#C[C@@H](Cc1nnn[nH]1)c1ccc(OCc2ccc3scc(C(C)C)c3c2)cc1` [Cpd 58, (2S)-5-(2-(4-((3-Isopropylbenzo[b]thiophen-5-yl)methoxy)phenyl)pent-3-yn-1-yl)-1H-tetrazole] was tested. Which pEC50 did it give?
**A.** The pEC50 was 7.00.

**Q.** How did the pEC50 turn out when `CC#C[C@@H](Cc1nnn[nH]1)c1ccc(OCc2ccc3scc(-c4ncc(OCCOC)cc4C)c3c2)cc1` [Cpd 26, (2S)-2-(5-((4-(1-(1H-Tetrazol-5-yl)pent-3-yn-2-yl)phenoxy)methyl)benzo[b]thiophen-3-yl)-5-(2-methoxyethoxy)-3-methylpyridine] was run?
**A.** Its pEC50 is 7.47.

**Q.** `CC#C[C@@H](Cc1nnn[nH]1)c1ccc(OCc2cc(C)c3scc(CCCC)c3c2)cc1` [Cpd 64, (2S)-5-(2-(4-((3-Butyl-7-methylbenzo[b]thiophen-5-yl)methoxy)phenyl)pent-3-yn-1-yl)-1H-tetrazole] was tested. Which pEC50 did it give?
**A.** Its pEC50 is 6.48.

**Q.** How did the pEC50 turn out when `CC#C[C@@H](Cc1nnn[nH]1)c1ccc(OCc2ccc3scc(CCC)c3c2)cc1` [Cpd 59, (2S)-5-(2-(4-((3-Propylbenzo[b]thiophen-5-yl)methoxy)phenyl)pent-3-yn-1-yl)-1H-tetrazole] was run?
**A.** The pEC50 was 6.89.

**Q.** How did the pEC50 turn out when `CC#C[C@@H](Cc1nnn[nH]1)c1ccc(OCc2cnc3scc(-c4ccccc4C)c3c2)cc1` [Cpd 49, (2S)-5-((4-(1-(1H-Tetrazol-5-yl)pent-3-yn-2-yl)phenoxy)methyl)-3-(2-methylphenyl)thieno[2,3-b]pyridine] was run?
**A.** The pEC50 was 8.00.

**Q.** `CC#C[C@@H](Cc1nnn[nH]1)c1ccc(OCc2ccc3scc(-c4cccc5c4CCC(C)(C)O5)c3c2)cc1` [Cpd 30, (2S)-5-(2-(4-((3-(2,2-Dimethylchroman-5-yl)benzo[b]thiophen-5-yl)methoxy)phenyl)pent-3-yn-1-yl)-1H-tetrazole] was tested. Which pEC50 did it give?
**A.** The pEC50 was 6.37.

**Q.** How did the pEC50 turn out when `CC#C[C@@H](Cc1nnn[nH]1)c1ccc(OCc2ccc3scc(-c4cccc5c4OCCO5)c3c2)cc1` [Cpd 27, (2S)-5-(2-(4-((3-(2,3-Dihydrobenzo[b][1,4]dioxin-5-yl)benzo[b]thiophen-5-yl)methoxy)phenyl)pent-3-yn-1-yl)-1H-tetrazole] was run?
**A.** Its pEC50 is 7.21.

**Q.** How did the pEC50 turn out when `CC#C[C@@H](Cc1nnn[nH]1)c1ccc(OCc2ccc3scc(-c4cccc(OCCOC)c4C)c3c2)nc1` [Cpd 42, (2R)-5-(1-(1H-Tetrazol-5-yl)pent-3-yn-2-yl)-2-((3-(3-(2-methoxyethoxy)-2-methylphenyl)benzo[b]thiophen-5-yl)methoxy)pyridine] was run?
**A.** Its pEC50 is 6.92.

**Q.** How did the pEC50 turn out when `CC#C[C@@H](Cc1nnn[nH]1)c1ccc(OCc2ccc3sc(C)c(-c4ccc(OC5CCS(=O)(=O)CC5)cc4C)c3c2)cc1` [Cpd 18, 4-(4-(5-((4-((2S)-1-(1H-Tetrazol-5-yl)pent-3-yn-2-yl)phenoxy)methyl)-2-methylbenzo[b]thiophen-3-yl)-3-methylphenoxy)tetrahydro-2H-thiopyran 1,1-dioxide] was run?
**A.** The pEC50 was 7.10.

**Q.** How did the pEC50 turn out when `CC#C[C@@H](Cc1nnn[nH]1)c1ccc(OCc2ccc3scc(-c4ccccc4Br)c3c2)cc1` [Cpd 4, (2S)-5-(2-(4-((3-(2-Bromophenyl)benzo[b]thiophen-5-yl)methoxy)phenyl)pent-3-yn-1-yl)-1H-tetrazole] was run?
**A.** Its pEC50 is 7.70.

**Q.** With `CC#C[C@@H](Cc1nnn[nH]1)c1ccc(OCc2ccc3scc(-c4nccnc4C)c3c2)cc1` [Cpd 24, (2S)-2-(5-((4-(1-(1H-Tetrazol-5-yl)pent-3-yn-2-yl)phenoxy)methyl)benzo[b]thiophen-3-yl)-3-methylpyrazine] as the molecule, how does the pEC50 read?
**A.** The pEC50 was 6.26.

**Q.** How did the pEC50 turn out when `CC#C[C@@H](Cc1nnn[nH]1)c1ccc(OCc2ccc3scc(-c4cc(NS(C)(=O)=O)ccc4C)c3c2)cc1` [Cpd 29, (2S)—N-(3-(5-((4-(1-(1H-tetrazol-5-yl)pent-3-yn-2-yl)phenoxy)methyl)benzo[b]thiophen-3-yl)-4-methylphenyl)methanesulfonamide] was run?
**A.** Its pEC50 is 6.38.

**Q.** With `CC#C[C@@H](Cc1nnn[nH]1)c1ccc(OCc2ccc3scc(-c4ccc(OCCOC)cc4C)c3c2)nc1` [Cpd 41, (2R)-5-(1-(1H-Tetrazol-5-yl)pent-3-yn-2-yl)-2-((3-(4-(2-methoxyethoxy)-2-methylphenyl)benzo[b]thiophen-5-yl)methoxy)pyridine] as the molecule, how does the pEC50 read?
**A.** Its pEC50 is 7.72.

**Q.** `CC#C[C@@H](Cc1nnn[nH]1)c1ccc(OCc2ccc3scc(-c4c(C)cccc4C)c3c2)cc1` [Cpd 20, (2S)-5-(2-(4-((3-(2,6-Dimethylphenyl)benzo[b]thiophen-5-yl)methoxy)phenyl)pent-3-yn-1-yl)-1H-tetrazole] was tested. Which pEC50 did it give?
**A.** Its pEC50 is 7.62.

**Q.** With `CC#C[C@@H](Cc1nnn[nH]1)c1ccc(OCc2ccc3scc(-c4ccc(S(C)(=O)=O)cc4C)c3c2)cc1` [Cpd 14, (2S)-5-(2-(4-((3-(2-Methyl-4-(methylsulfonyl)phenyl)benzo[b]thiophen-5-yl)methoxy)phenyl)pent-3-yn-1-yl)-1H-tetrazole] as the molecule, how does the pEC50 read?
**A.** Its pEC50 is 6.89.

**Q.** How did the pEC50 turn out when `CC#C[C@@H](Cc1nnn[nH]1)c1ccc(OCc2cc(C)c3scc(C4CCCC4)c3c2)cc1` [Cpd 65, (2S)-5-(2-(4-((3-Cyclopentyl-7-methylbenzo[b]thiophen-5-yl)methoxy)phenyl)pent-3-yn-1-yl)-1H-tetrazole] was run?
**A.** The pEC50 was 6.36.

**Q.** How did the pEC50 turn out when `CC#C[C@@H](Cc1nnn[nH]1)c1ccc(OCc2ccc3scc(-c4ncnn4C)c3c2)cc1` [Cpd 23, (2S)-5-(2-(4-((3-(1-Methyl-1H-1,2,4-triazol-5-yl)benzo[b]thiophen-5-yl)methoxy)phenyl)pent-3-yn-1-yl)-1H-tetrazole] was run?
**A.** The pEC50 was 5.76.
